Test system: C57Bl/6 mice
Experiment: AGISHA model with AngII as injury inducer (ACR in urine)
Type: in vivo
Excerpt: Five groups with 10-12 mice per group (C57Bl/6, Charles River Laboratories, 6-7 weeks old) were set for one experiment. After delivery, animals remained in a temperature- and light-controlled room with standardized mouse chow and water ad libitum for a one week acclimatization period, following guidelines of local governmental institutions (LANUV Germany). The groups were divided as follows (see FIG. 1): • 1. Control group without AngII bolus injection, but with control saline and additional (oral) administration of drug vehicle (10% ethanol, 40% solutol, 50% water or saline). • 2. AngII group, treated with AngII in normal saline, and drug vehicle. AngII administration occurred in two bolus injections (i.v.+s.c.) of 10 μg (5 μg i.v.+5 μg s.c.), 16 μg (8 μg i.v.+8 μg s.c.) and 20 μg (10 μg i.v.+10 μg s.c.) per mouse, where the first bolus was injected intravenously and the second bolus subcutaneously. The drug vehicle was administered orally.
3. Candidate groups 3 and 4: AngII injection and additional treatment with the investigated drug/drugs. For substance testing, drugs or appropriated vehicles were administered orally, via i.v., s.c., or i.p. Administration occurred prior to or after AngII-injection. For example, investigated drug/drugs were given orally 30 minutes before the induction of the injury. • 4. Group 5 is the positive control group Animals were injected with AngII and treated orally with Losartan 30 mg/kg. Losartan is an AngII receptor blocker AT1 (Pieter B M et al, Pharma. Rev., 1993, Kang P M et al, Progress in Cardiology, 1994).
After AngII injection animals were placed in metabolic cages (Technoplast, Italy) for urine collection for up to 4 hours. At the end of the experiment the urine was analyzed to quantify the ACR. More specifically, the collected urine was analyzed using an automatic analyzer for urinary albumin as well as urinary creatinine (Coban® Integra 400, Roche, Basel, SUI) or using the Mouse albumin ELISA kit (ABCAM, Cambridge, UK). […] The AGISHA model was performed in 3 identical cycles with a one-week break for recovery.
Negative and positive control experiment. To confirm the findings shown in FIG. 2-4, the mode of action in AGISHA was investigated. In the following experiment, three of the animal groups were pre-treated with three different drugs by oral application 30 minutes before administration of injury inducer (see FIG. 5). • 1) Enalapril 10 mg/kg, an angiotensin-converting enzyme (ACE) inhibitor, is standard of care for high blood pressure. It was used as positive modulator control 1 of the renin-angiotensin system (RAS) in the AGISHA model. • 2) Losartan potassium, 30 mg/kg, angiotensin II type I receptor (AT1) antagonist, standard of care for high blood pressure (Kang et al, 1994; Sica D A et al, Clin Parmacokinet., 2005) was used as positive modulator control 2 of the RAS system in the AGISHA model. • 3) Tivozanib, 3 mg/kg, vascular endothelial grow factor receptor tyrosine kinase inhibitor (Campas C et al, Drugs Fut., 2009) was used as negative modulator of the RAS system during AGISHA model. […]
The experiment was performed as described in example 5, except that the sGC stimulator 5-cyclopropyl-2-[1-(2-fluorobenzyl)-1H-pyrazolo[3,4-b]pyridin-3-yl]pyrimidin-4-amine was used for treatment. […] Losartan (30 mg/kg) was used as positive control.

[1] = oral 30 minutes before AngII 10 μg i.v.+10 μg s.c., Enalapril 10 mg/kg, Losartan potassium 30 mg/kg, Tivozanib 3 mg/kg, FIG. 6

`O=C(O)CCCCN(CCc1cc(F)ccc1OCc1ccc(-c2ccc(C(F)(F)F)cc2)cc1)Cc1ccc(C(=O)O)cc1` [4-({(4-carboxybutyl)[2-(5-fluoro-2-{[4′-(trifluoromethyl)biphenyl-4-yl]methoxy}phenyl)ethyl]amino}methyl)benzoic acid] was tested, and the “Reduction of ACR compared with the control group” value (3 mg/kg orally prior to AngII 10 μg i.v.+10 μg s.c.) was 71% and the “AngII induced ACR, mean±SD” value (3 mg/kg orally prior to AngII 10 μg i.v.+10 μg s.c., urine 4 hours) was 35 ± 26 µg/mg.
`CCOC(=O)[C@H](CCc1ccccc1)N[C@@H](C)C(=O)N1CCC[C@H]1C(=O)O` [Enalapril] was tested, and the “Effect on ACR induced by AngII” value [1] was “significantly reduced”.
For `O=C(O)Cc1ccc2oc(-c3ccc(NC(=O)/C=C/c4ccc(Br)cc4)c(F)c3)nc2c1` [OGT2115], the “Effect on ACR induced by AngII” value (pre-treatment orally, AngII 10 μg i.v.+10 μg s.c., OGT 2115 40 mg/kg, Losartan Potassium 30 mg/kg, FIG. 10) was “significantly reduced”.
With `COc1cc2nccc(Oc3ccc(NC(=O)Nc4cc(C)on4)c(Cl)c3)c2cc1OC` [Tivozanib] the “Effect on ACR induced by AngII” value [1] was “no effect on ACR induced by AngII”.

Reference: patent US11439713B2, “Method for creating a renal injury model to screen molecules for the treatment of renal injury” (BAYER AKTIENGESELLSCHAFT, priority 2017, dated 2022)
